Measurements published in US20210361566A1, “FORMULATIONS OF 5-HYDROXY TRYPTOPHAN (5-HTP) FOR BETTER BIOAVAILABILITY FOR VARIOUS INDICATIONS” (National University of Singapore, priority 2018, published 2021).

Experiments:
[1] = Water solubility of 5-HTP free base; assay type: physicochemical; conditions: free base form
Experimental: (§1) 5-HTP dosing: The free base form of 5-HTP was used (5-HTP has a water solubility of >10 mg/mL).

[2] = mice; cited from earlier work
[3] = co-administration of 5-HTP and a peripheral decarboxylase inhibitor, in some cases; cited from earlier work
[4] = Release rate calculation Rinput=(Css×Vd×kel)/F, Scenario 1 (5-HTP without peripheral decarboxylase inhibitor); set-up: species or system human
Description: As calculated above, the relative upper GI tract:colon bioavailability was 20% (corresponding to an absolute colonic bioavailability of 4%). Based on the above, according to general teachings in the field of sustained-release drug delivery (Sutton S C. The use of gastrointestinal intubation studies for controlled release development. Br J Clin Pharmacol. 2009 September; 68[3]: 342-54) it is concluded that gastroretentive technologies are needed in order to achieve a desirable extended release profile of 5-HTP together with a desirable sustained and therapeutically active 5-HTP plasma level profile. Further, the determination of the oral bioavailability (Fpo) enables computation of the delivery rate of 5-HTP needed from the dosage form to achieve a given plasma level of 5-HTP at steady state. Moreover, computation of the resultant plasma levels of 5-HTP can be done for embodiments where a peripheral decarboxylase inhibitor (with different levels of effects on 5-HTP bioavailability and elimination half-life) is included in the dosage form.
The desired release rate profile was calculated as follows, for a dosage form disclosed in the present invention when administering 5-HTP without a peripheral decarboxylase inhibitor:
Substituting, we get Rinput=˜25 mg/hr, to achieve average steady-state plasma concentrations of 5-HTP of 1 mg/L (1000 ng/ml).

[5] = Absolute and regional intestinal bioavailability of 5-HTP in humans (oral, colonic, intravenous dosing; plasma LC-MS); assay type: in vivo; conditions: both sexes, other: colonic (by colonoscopy), human, colonic 200 mg vs IV 50 mg, read-out: absolute bioavailability (F), colonic dosing
Experimental: Determination of absolute and regional intestinal bioavailability of 5-HTP in humans.
as §1
Colonic: 5-HTP free base saline solution 200 mg.
Intravenous: 5-HTP free base saline solution 50 mg.
Oral/Upper GI: Two 5-HTP gelatin tablets of 100 mg 5-HTP free base (200 mg total dose).
Subjects: Healthy male and female volunteers aged 18 to 65 years with a body mass index (BMI) of 19 to 28 were eligible for the study. Subjects were admitted to the investigational medical unit (IMU) 2 h before 5-HTP administration and remained at the IMU for 24 h following, for blood sampling and safety assessment. […]
Plasma samples analysis: Plasma samples were stored at −80° C. until analysis. 5-HTP and the metabolite 5-hydroxyindole-acetic-acid (5-HIAA) were quantified by liquid chromatography with mass-spectrometry detection.
Data analysis: The PK data were analyzed using noncompartmental (NCA) and compartmental (mixed effects) mathematical modelling approaches, to calculate area 5-HTP plasma under the curve (AUC) for each subject for each 5-HTP administration.
Results: The human bioavailability of 5-HTP via the various routes of administration above was established in human subjects by administering 5-HTP through these various routes and quantifying the resultant 5-HTP plasma levels at various time points. […]

N[C@@H](Cc1c[nH]c2ccc(O)cc12)C(=O)O [5-HTP, 5-hydroxytryptophan]
solubility [1]: > 10000 µg/mL
absorption in the colon [2]: very effectively absorbed
increase of plasma 5-HTP levels by co-administration of a peripheral decarboxylase inhibitor [3]: one-fold to about fifteen-fold
Rinput, release rate of 5-HTP needed for average steady-state plasma concentration of 1 mg/L (1000 ng/ml) ([4]; Scenario 1: F ~0.2 oral, Vd ~10 L, kel 0.462 h^−1, no peripheral decarboxylase inhibitor): ~25 mg/h
kel, elimination rate constant ([4]; calculated from plasma half-life of 1.5 hrs): 0.462 h⁻¹
bioavailability [5]: 4%
